Experiment: Solid state stability of the drug substance (HPLC assay for final content and degradation products)
Type: physicochemical
Details: 1 month, product of Example 1
Protocol: The solid state stability of the drug substance was determined by storing approximately 1.0 g of the material in a glass bottle at i) 40° C./75% Relative Humidity (RH), open exposure, for 1 month and b) at 50° C., closed, for 1 month. The material was assayed by HPLC for final content and degradation products in both cases.

[1] = 40° C./75% Relative Humidity (RH), open exposure

Solid state stability: HPLC assay [1]: 97 % initial
Solid state stability: degradation observed [1]: No significant degradation observed
Solid state stability: HPLC assay (50° C., closed): 99 % initial
Solid state stability: degradation observed (50° C., closed): No significant degradation observed
SMILES: CN(CCOc1ccc(CC2SC(=O)NC2=O)cc1)c1ccccn1.O=C(O)C(O)C(O)C(=O)O (racemic) [DL-Tartrate, 5-[4-[2-(N-methyl-N-(2-pyridyl)amino)ethoxy]benzyl]thiazolidine-2,4-dione DL tartrate]

— patent US20040014790A1, “Tartrate salt of thiazolidinedione derivative” (priority 2000, published 2004)
